From patent US6350764B2, “Heteroaryl aminoguanidines and alkoxyguanidines and their use as protease inhibitors” (3-Dimensional Pharmaceuticals, Inc., priority 1997, dated 2002)
Where a name gives a salt, the structure may show the parent alone. Each block holds one molecule with its values, some of them ahead of it.

Legend:
Format in all cases: biochemical
human α-thrombin = molecular target: T1, human α-thrombin (Homo sapiens, UniProt P00734); assay: In vitro inhibition of purified enzymes: thrombin, hydrolysis of N-succinyl-Ala-Ala-Pro-Arg-p-nitroanilide; conditions: 37° C., pH 7.5
T1 construct: Purified human a-thrombin was diluted into assay buffer; purchased Enzyme Research Laboratories (South Bend)
From the text: (§1) Reagents: All buffer salts were obtained from Sigma Chemical Company (St. Louis, Mo.), and were of the highest purity available. The enzyme substrates, N-benzoyl-Phe-Val-Arg-p-nitroaniide (Sigma B7632) N-benzoyl-Ile-Glu-Gly-Arg-p-nitroanilide hydrochloride (Sigma B2291), N-p-Tosyl-Gly-Pro-Lys-p-nitroanilide (Sigma T6140), N-succinyl-Ala-Ala-Pro-Phe-p-nitroanilide (Sigma S7388) and N-CBZ-Val-Gly-Arg-p-nitroanilide (Sigma C7271) were obtained from Sigma.
(§2) Human α-thrombin, human factor Xa and human plasmin were obtained from Enzyme Research Laboratories (South Bend, Id.). Bovine α-chymotrypsin (Sigma C4129), bovine trypsin (Sigma T8642) and human kidney cell urokinase (Sigma U5004) were obtained from Sigma. Human leukocyte elastase was obtained from Elastin Products (Pacific, Mo.).
Ki Determinations: All assays are based on the ability of the test compound to inhibit the enzyme catalyzed hydrolysis of a peptide p-nitroanilide substrate. […] The final concentrations for each of the substrates is listed below. In general, substrate concentrations are lower than the experimentally determined value for Km. Test compounds are prepared as a 1.0 mg/ml solution in DMSO. Dilutions are prepared in DMSO yielding 8 final concentrations encompassing a 200 fold concentration range. Enzyme solutions are prepared at the concentrations listed below in assay buffer.
(§3) Reactions were initiated by the addition of a […] aliquot of enzyme and the absorbance increase at 405 nm is recorded for 15 minutes. Data corresponding to less than 10% of the total substrate hydrolysis were used in the calculations. The ratio of the velocity (rate of change in absorbance as a function of time) for a sample containing no test compound is divided by the velocity of a sample containing test compound, and is plotted as a function of test compound concentration. The data are fit to a linear regression, and the value of the slope of the line calculated. The inverse of the slope is the experimentally determined Ki value.
Thrombin: Thrombin activity was assessed as the ability to hydrolyze the substrate N-succinyl-Ala-Ala-Pro-Arg-p-nitroanilide. […] Final reagent concentrations were: [thrombin]=0.5 nM, [substrate N-succinyl-Ala-Ala-Pro-Arg-p-nitroanilide]=32 mM.

human factor Xa = molecular target: T2, human factor Xa (Homo sapiens, UniProt P00742); assay: In vitro inhibition of purified enzymes: Factor X [FXa], hydrolysis of N-benzoyl-Ile-Glu-Gly-Arg-p-nitroanilide; conditions: for Ki: 37° C., pH 7.5
T2 construct: purchased Enzyme Research Laboratories (South Bend)
T2 sequence (P00742 235-488 limits assumed): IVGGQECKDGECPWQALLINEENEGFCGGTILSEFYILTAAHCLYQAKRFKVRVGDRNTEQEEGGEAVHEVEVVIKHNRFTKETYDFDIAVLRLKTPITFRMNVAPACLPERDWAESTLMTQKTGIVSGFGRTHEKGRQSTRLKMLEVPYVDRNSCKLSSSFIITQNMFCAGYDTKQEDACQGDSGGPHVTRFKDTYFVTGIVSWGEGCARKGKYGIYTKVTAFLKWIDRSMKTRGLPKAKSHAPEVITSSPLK
T2 sequence (P00742 41-179 partner limits assumed): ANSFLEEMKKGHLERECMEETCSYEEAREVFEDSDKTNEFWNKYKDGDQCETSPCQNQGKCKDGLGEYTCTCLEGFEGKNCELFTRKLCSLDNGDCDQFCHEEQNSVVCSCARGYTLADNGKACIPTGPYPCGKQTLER
From the text: as §1, with “Sigma. N-succinyl-Ala-Ala-Pro-Arg-p-nitroanilide (BACHEM L-1720) and N-succinyl-Ala-Ala-Pro-Val-p-nitroanilide (BACHEM L-1770) were obtained from BACHEM (King of Prussia, Pa.).” for “Sigma.”
as §2
(§4) Ki Determinations: All assays are based on the ability of the test compound to inhibit the enzyme catalyzed hydrolysis of a peptide p-nitroanilide substrate. In atypical Ki determination, substrate is prepared in DMSO, and diluted into an assay buffer consisting of 50 mM HEPES, 200 mM NaCl, pH 7.5. The final concentrations for each of the substrates is listed below. In general, substrate concentrations are lower than the experimentally determined value for Km. Test compounds are prepared as a 1.0 mg/ml solution in DMSO. Dilutions are prepared in DMSO yielding 8 final concentrations encompassing a 200 fold concentration range. Enzyme solutions are prepared at the concentrations listed below in assay buffer.
as §3, with “In a typical Ki determination, into each well of a 96 well plate is pipetted […] of substrate solution, […] of test compound solution, and the plate allowed to thermally equilibrate at 37° C. in a Molecular Devices plate reader for>15 minutes. Reactions” for “Reactions”
Factor X [FXa]: FXa activity was assessed as the ability to hydrolyze the substrate N-benzoyl-Ile-Glu-Gly-Arg-p-nitroanilide hydrochloride. […] Final DMSO concentration was 4.3%. Purified activated human Factor X was diluted into assay buffer to a concentration of 300 nM. Final reagent concentrations were: [FXa]=10 nM, [N-benzoyl-Ile-Glu-Gly-Arg-p-nitroanilide hydrochloride]=51 mM.

bovine α-chymotrypsin = molecular target: T3, bovine α-chymotrypsin (Bos taurus, UniProt P00766); assay: In vitro inhibition of purified enzymes: chymotrypsin, hydrolysis of N-succinyl-Ala-Ala-Pro-Phe-p-nitroanilide
T3 construct: Bovine α-chymotrypsin (Sigma C4129); purchased Sigma C4129
From the text: as §1, with “Sigma. N-succinyl-Ala-Ala-Pro-Arg-p-nitroanilide (BACHEM L-1720) and N-succinyl-Ala-Ala-Pro-Val-p-nitroanilide (BACHEM L-1770) were obtained from BACHEM (King of Prussia, Pa.).” for “Sigma.”
as §2, §4
as §3, with “In a typical Ki determination, into each well of a 96 well plate is pipetted […] of substrate solution, […] of test compound solution, and the plate allowed to thermally equilibrate at 37° C. in a Molecular Devices plate reader for>15 minutes. Reactions” for “Reactions”
Chymotrypsin: Chymotrypsin activity was assessed as the ability to hydrolyze N-succinyl-Ala-Ala-Pro-Phe-p-nitroanilide. […] Final DMSO concentration was 4.3%. Purified bovine chymotrypsin was diluted into assay buffer to a concentration of 81 nM. Final reagent concentrations were: [Chymotrypsin]=2.7 nM, [N-succinyl-Ala-Ala-Pro-Phe-p-nitroanilide]=14 mM.

human leukocyte elastase = molecular target: T4, human leukocyte elastase (Homo sapiens, UniProt P08246); assay: In vitro inhibition of purified enzymes: elastase, hydrolysis of N-succinyl-Ala-Ala-Pro-Val-p-nitroanilide
T4 construct: purchased Elastin Products (Pacific, Mo.)
T4 sequence (P08246 30-247 limits assumed): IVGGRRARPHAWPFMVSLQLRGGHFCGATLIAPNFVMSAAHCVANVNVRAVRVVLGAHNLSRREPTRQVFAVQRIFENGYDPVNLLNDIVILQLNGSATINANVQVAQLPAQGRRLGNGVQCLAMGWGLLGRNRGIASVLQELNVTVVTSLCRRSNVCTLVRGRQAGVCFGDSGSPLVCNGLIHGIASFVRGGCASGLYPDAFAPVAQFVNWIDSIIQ
From the text: as §1, with “Sigma. N-succinyl-Ala-Ala-Pro-Arg-p-nitroanilide (BACHEM L-1720) and N-succinyl-Ala-Ala-Pro-Val-p-nitroanilide (BACHEM L-1770) were obtained from BACHEM (King of Prussia, Pa.).” for “Sigma.”
as §2, §4
as §3, with “In a typical Ki determination, into each well of a 96 well plate is pipetted […] of substrate solution, […] of test compound solution, and the plate allowed to thermally equilibrate at 37° C. in a Molecular Devices plate reader for>15 minutes. Reactions” for “Reactions”
Elastase: Elastase activity was assessed as the ability to hydrolyze N-succinyl-Ala-Ala-Pro-Val-p-nitroanilide. Substrate solutions were prepared at a concentration of 19 mM (19 mM<<Km=89 mM) in assay buffer. Final DMSO concentration was 4.3%. Purified human leukocyte elastase was diluted into assay buffer to a concentration of 750 nM. Final reagent concentrations were: [Elastase]=25 nM, [N-succinyl-Ala-Ala-Pro-Val-p-nitroanilide]=19 mM.

human plasmin = molecular target: T5, human plasmin (Homo sapiens, UniProt P00747); assay: In vitro inhibition of purified enzymes: plasmin, hydrolysis of N-p-Tosyl-Gly-Pro-Lys-p-nitroanilide
T5 construct: Purified human plasmin was diluted into assay buffer; purchased Enzyme Research Laboratories (South Bend)
T5 sequence (P00747 581-810 limits assumed): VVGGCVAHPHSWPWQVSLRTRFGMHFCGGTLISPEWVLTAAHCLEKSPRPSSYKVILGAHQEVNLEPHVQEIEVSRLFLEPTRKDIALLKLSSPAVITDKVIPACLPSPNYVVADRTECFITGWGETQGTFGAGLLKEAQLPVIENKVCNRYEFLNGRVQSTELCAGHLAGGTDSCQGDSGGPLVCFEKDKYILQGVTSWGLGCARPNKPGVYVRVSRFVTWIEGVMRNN
T5 sequence (P00747 97-580 partner limits assumed): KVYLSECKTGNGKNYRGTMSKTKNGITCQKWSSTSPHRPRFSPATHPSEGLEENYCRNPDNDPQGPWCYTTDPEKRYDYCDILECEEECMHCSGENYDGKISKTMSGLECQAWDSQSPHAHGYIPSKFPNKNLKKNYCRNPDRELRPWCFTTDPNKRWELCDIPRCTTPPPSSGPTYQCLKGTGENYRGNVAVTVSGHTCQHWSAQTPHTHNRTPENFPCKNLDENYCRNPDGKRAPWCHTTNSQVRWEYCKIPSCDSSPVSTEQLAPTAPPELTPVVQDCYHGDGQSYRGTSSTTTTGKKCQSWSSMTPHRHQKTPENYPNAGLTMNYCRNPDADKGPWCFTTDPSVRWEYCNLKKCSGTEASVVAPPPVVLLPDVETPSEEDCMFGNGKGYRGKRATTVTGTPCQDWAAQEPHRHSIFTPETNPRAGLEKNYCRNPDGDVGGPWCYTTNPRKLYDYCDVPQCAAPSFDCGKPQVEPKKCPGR
From the text: as §1, with “Sigma. N-succinyl-Ala-Ala-Pro-Arg-p-nitroanilide (BACHEM L-1720) and N-succinyl-Ala-Ala-Pro-Val-p-nitroanilide (BACHEM L-1770) were obtained from BACHEM (King of Prussia, Pa.).” for “Sigma.”
as §2, §4
as §3, with “In a typical Ki determination, into each well of a 96 well plate is pipetted […] of substrate solution, […] of test compound solution, and the plate allowed to thermally equilibrate at 37° C. in a Molecular Devices plate reader for>15 minutes. Reactions” for “Reactions”
Plasmin: Plasmin activity was assessed as the ability to hydrolyze the N-p-Tosyl-Gly-Pro-Lys-p-nitroanilide. Substrate solutions were prepared at a concentration of 37 mM (37 mM<<Km=243 mM) in assay buffer. Final DMSO concentration was 4.3%. Purified human plasmin was diluted into assay buffer to a concentration of 240 nM. Final reagent concentrations were: [Plasmin]=8 nM, [N-p-Tosyl-Gly-Pro-Lys-p-nitroanilide]=37 mM.

bovine trypsin = molecular target: T6, bovine trypsin (Bos taurus, UniProt P00760); assay: In vitro inhibition of purified enzymes: trypsin, hydrolysis of N-benzoyl-Phe-Val-Arg-p-nitroanilide
T6 construct: Purified bovine trypsin was diluted into assay buffer; purchased Sigma T8642
T6 sequence (P00760 24-246): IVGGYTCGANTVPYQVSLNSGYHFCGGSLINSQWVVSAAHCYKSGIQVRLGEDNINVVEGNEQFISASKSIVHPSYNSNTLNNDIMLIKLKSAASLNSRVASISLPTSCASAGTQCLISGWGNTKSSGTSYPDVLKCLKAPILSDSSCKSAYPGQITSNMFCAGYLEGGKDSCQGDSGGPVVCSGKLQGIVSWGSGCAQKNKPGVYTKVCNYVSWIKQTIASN
From the text: as §1, with “Sigma. N-succinyl-Ala-Ala-Pro-Arg-p-nitroanilide (BACHEM L-1720) and N-succinyl-Ala-Ala-Pro-Val-p-nitroanilide (BACHEM L-1770) were obtained from BACHEM (King of Prussia, Pa.).” for “Sigma.”
as §2, §4
as §3, with “In a typical Ki determination, into each well of a 96 well plate is pipetted […] of substrate solution, […] of test compound solution, and the plate allowed to thermally equilibrate at 37° C. in a Molecular Devices plate reader for>15 minutes. Reactions” for “Reactions”
Trypsin: Trypsin activity was assessed as the ability to hydrolyze N-benzoyl-Phe-Val-Arg-p-nitroanilide. […] Final DMSO concentration was 4.3%. Purified bovine trypsin was diluted into assay buffer to a concentration of 120 nM. Final reagent concentrations were: [Trypsin]=4 nM, [N-benzoyl-Phe-Val-Arg-p-nitroanilide]=13 mM.

SMILES: Cc1ccc(NS(=O)(=O)Cc2ccccc2)c(=O)n1CC(=O)NCCCONC(=N)N.O=C(O)C(F)(F)F [Example 1, 3-Benzylsulfonylamino-6-methyl-1-[(3-guanidinooxypropyl)aminocarbonylmethyl]-2-pyridinone trifluorocaetate]
Ki (human α-thrombin): 53 nM | % Inhibition FXa (human factor Xa; at 24,000 nM): 0 @ % | % Inhibition Chymo. (bovine α-chymotrypsin; at 24,000 nM): 0 @ % | % Inhibition Elastase (human leukocyte elastase; at 24,000 nM): 0 @ % | % Inhibition Plasmin (human plasmin; at 24,000 nM): 0 @ % | % Inhibition Trypsin (bovine trypsin; at 24,000 nM): 0 @ %

Ki (human α-thrombin): 7.9 nM | Ki (human factor Xa): 24000 nM | Ki (bovine α-chymotrypsin; 37° C., pH 7.5, read-out: Ki Chymo.): 14000 nM | inhibition at 24.5 µM (human leukocyte elastase; at 24,500 nM): 0% | inhibition at 24.5 µM (human plasmin; at 24,500 nM): 0% | inhibition at 24.5 µM (bovine trypsin; at 24,500 nM): 0%
SMILES: Cc1ccc(NS(=O)(=O)Cc2ccccc2)c(=O)n1CC(=O)NCCONC(=N)N [Example 2, 3-Benzylsulfonylamino-6-methyl-1-[(2-guanidinooxyethyl)aminocarbonylmethyl]-2-pyridinone trifluoroacetate]

Ki (human α-thrombin): 29 nM | Ki (human factor Xa): 7900 nM | inhibition at 79 µM (human leukocyte elastase; at 79,000 nM): 0%
SMILES: N=C(N)NOCCNC(=O)Cn1cccc(NS(=O)(=O)Cc2ccccc2)c1=O [Example 4, 3-Benzylsulfonylamino-1-[(2-guanidinooxyethyl)aminocarbonylmethyl]-2-pyridinone trifluoroacetate]

inhibition at 24.6 µM (bovine α-chymotrypsin; at 24,600 nM, read-out: % Inhibition Chymo.): 0% | inhibition at 24.6 µM (human leukocyte elastase; at 24,600 nM): 0% | inhibition at 24.6 µM (human plasmin; at 24,600 nM): 0% | inhibition at 24.6 µM (bovine trypsin; at 24,600 nM): 0%
SMILES: Cc1cccc(S(=O)(=O)Nc2ccc(C)n(CC(=O)NCCONC(=N)N)c2=O)c1 [Example 5, 3-(3-Methylphenylsulfonyl)amino-6-methyl-1-[(2-guanidinooxyethyl)aminocarbonylmethyl]-2-pyridinone trifluoroacetate]

Ki (human α-thrombin): 43 nM | inhibition at 56 µM (human leukocyte elastase; at 56,000 nM): 0% | inhibition at 56 µM (bovine trypsin; at 56,000 nM): 0%
SMILES: Cc1ccc(NS(=O)(=O)Cc2ccccc2)c(=O)n1CC(=O)N1CCC(ONC(=N)N)CC1 [Example 8, 3-(Benzylsulfonyl)amino-6-methyl-1-[(4-guanidinooxy)piperidinylcarbonylmethyl]-2-pyridinone trifluoroacetate]
